Results as given in US9447116B2, “Inhibitors of HIV replication” (priority 2010, dated 2016).
Read-outs that look alike come from different tables or passages of the source.

Key:
[1] = target: T1, LEDGF-Integrase interaction (Human immunodeficiency virus type 1 group M subtype B, UniProt P12497); assay: HTRF Interaction assay (S9118); set-up: species or system HIV; conditions: His6-tagged integrase and MBP-LEDGF integrase binding domain
T1 construct: His6-tagged integrase (78 nM final concentration); purchased Prof; Zeger Debyser, Katholieke Universiteit Leuven (supplied by an academic laboratory, not a commercial vendor)
Source text: • Adachi, A., Gendelman, H., Koenig, S., Folks, T., Wiley, R., Rabson, A. and Martin, M (1986) Production of acquired immunodeficency syndrome-associated retrovirus in human and nonhuman cells transfected with an infectious molecular clone, J. Virol., 59, 284-291. • Cao J, Isaacson J, Patick A K, Blair W S. (2005) High-throughput human immunodeficiency virus type 1 (HIV-1) full replication assay that includes HIV-1 Vif as an antiviral target Antimicrobial Agents and Chemotherapy; 49(9), p 3833-3841. Assay to Measure the LEDGF-Integrase Integration Inhibitory Activity of Compounds of the Invention HTRF Interaction Assay (S9118)
An Homogeneous Time Resolved Fluorescence (HTRF) assay is performed in a manner similar to previous reports on HTRF protein assays as reviewed by Mathis (Clin. Chem., 2005). The assay procedure is performed as follows: reactions are performed in 20 μl final volume in 384-well black low volume microtiter plates (Greiner). The final reaction buffer contains 29 mM phosphase buffer (pH 7), 10 mM HEPES buffet (pH 7.4), 68.5 mM NaCl, 1.4 mM KCl, 400 mM KF 0.05% (w/v) pluronic acid (P104, Sigma Aldrich) and 1% (v/v) DMSO. His6-tagged integrase (78 nM final concentration) is incubated with […] fused to the Δ325 carboxy terminal integrase binding domain of LEDGF in the presence of compound for 2 hours at room temperature. Both these protein regents are supplied by Prof. Zeger Debyser of Katholleke Universiteit Leuven, Leuven, Belgium. The compounds are added at varying concentrations spanning a wide range from 0.1 up to 100 μM. Afterwards 8.3 nM of europium cryptate conjugated anti-MBP monoclonal antibody and 17 nM anti-His antibody conjugated with the acceptor fluorophore d2. Following a 2 hour room temperature incubation the plates are read on an EnVision™ microplate reader (Perkin Elmer) using an excitation wavelength of 320 nm. The ratio of fluorescence emitted at […] is used to assess the degree to which the protein-protein interaction had been inhibited.

[2] = tested on: HIV-1 virus (NL4.3 strain); assay: MT-2 based antiviral assay (S8737E); format: cell-based
Source text: MT-2 Based Antiviral Assay (S8737E)
This assay is designed to determine the effects of small molecules on the replication of HIV-1 in the lymphobastoid cell line, MT2, and is able to detect the antiviral effect of compounds acting at any stage of the HIV-1 replication cycle. The assay, along with its associated cytotoxicity assay, was described in detail in 2005 in a paper by Cao et al (Antimicrobial Agents and Chemotherapy 2005; 49(9), p 3833-3841).
MT2 cells are infected with the HIV-1 virus (NL4.3 strain; Adachi et al., Journal of Virology 1986) and transferred to assay plates containing serial dilutions of compounds to be tested. The assay plates are incubated for 3 days (MT2) to allow for several rounds of viral replication/infection to take place. At the end of this time, supernatant is transferred into new plates containing JC53BL cells.
JC53BL cells express CXCR4, CCR5 and CD4 receptors, and HIV-1-LTR-β-Gal. Under normal culture conditions undetectable levels of β-Galactosidase are expressed, but in the presence of HIV-1, the viral Tat protein is able to activate the HIV-1-LTR in the JC53BL cells resulting in the increased expression of the β-Gal enzyme. The expression can be measured using the ‘FluorAce β-Galactosidase reporter’ assay. The levels of β-Gal are directly proportional to the levels of Tat (up to a threshold) allowing virus quantification. Compounds that inhibit virus replication will give rise to a reduced signal and a dose-response curve for each compound can be generated. This is then used to determine the IC50 for each compound, a measure of the compound's potency.

[3] = Human immunodeficiency virus 1, 72 h, read-out: Antiviral Activity (S8737E, μM), HIV-1 NL4.3 replication in MT2 cells, 3 days, β-Gal readout in JC53BL cells

| SMILES | IC50 [1] | IC50 [2, 3] | IC50 ([1]; table values) | IC50 ([2]; read-out: Antiviral Activity (S8737E), HIV-1 NL4.3 replication in MT2 cells, 3 days, β-Gal readout in JC53BL cells) |
| --- | --- | --- | --- | --- |
| Cc1ccc(-c2c([C@@H](OC(C)(C)C)C(=O)O)c(C)nc3sc4c(c23)CCCC4)c(O)c1 (single isomer, unassigned) [48, first eluting enantiomer] | 4120 nM | 0.089 µM |  |  |
| Cc1ccc(-c2c(C(OC(C)(C)C)C(=O)O)c(C)nc3sc4c(c23)CCCC4)c(O)c1 (single isomer, unassigned) [48, second eluting enantiomer] | 576 nM | 0.013 µM |  |  |
| Cc1nc2sc3c(c2c(-c2ccc(Cl)cc2O)c1[C@H](OC(C)(C)C)C(=O)O)CCCC3 (single isomer, unassigned) [Atropisomer 46A] | 558 nM | 0.014 µM |  |  |
| Cc1nc2sc3c(c2c(-c2cncnc2)c1C(OC(C)(C)C)C(=O)O)CCCC3 (centres unmarked) [Example 1, Tert-butoxy(2-methyl-4-pyrimidin-5-yl-5,6,7,8-tetrahydro[1]benzothieno[2,3-b]pyridin-3-yl)acetic acid] |  | > 20 µM |  |  |
| Cc1nc2sc3c(c2c(-c2ccc4scnc4c2)c1C(OC(C)(C)C)C(=O)O)CCCC3 (centres unmarked) [Example 4] |  | 0.282 µM | 3480 nM |  |
| CCc1ccc(-c2c(C(OC(C)(C)C)C(=O)O)c(C)nc3sc4c(c23)CCCC4)c(O)c1 (centres unmarked) [Example 5] |  | 0.155 µM | 2700 nM |  |
| Cc1nc2sc3c(c2c(-c2ccc4cn[nH]c4c2)c1C(OC(C)(C)C)C(=O)O)CCCC3 (centres unmarked) [Example 6] |  | 0.305 µM | 2630 nM |  |
| COc1ccc(-c2c(C(OC(C)(C)C)C(=O)O)c(C)nc3sc4c(c23)CCCC4)cn1 (centres unmarked) [Example 7] |  | 0.436 µM | 9250 nM |  |
| CCn1cc(-c2c(C(OC(C)(C)C)C(=O)O)c(C)nc3sc4c(c23)CCCC4)cn1 (centres unmarked) [Example 8] |  | 0.624 µM | 23800 nM |  |
| Cc1nc2sc3c(c2c(-c2ccc(C(F)(F)F)nc2)c1C(OC(C)(C)C)C(=O)O)CCCC3 (centres unmarked) [Example 9] |  | 0.683 µM | 11700 nM |  |
| Cc1nc2sc3c(c2c(-c2ccc4cnn(C)c4c2)c1C(OC(C)(C)C)C(=O)O)CCCC3 (centres unmarked) [Example 10] |  | 0.795 µM | 7870 nM |  |
| Cc1nc2sc3c(c2c(-c2ccc4cnn(C)c4c2)c1C(OC(C)(C)C)C(=O)O)CCCC3 (centres unmarked) [Example 11] |  |  | 12200 nM | 0.814 µM |
| Cc1nc2sc3c(c2c(-c2ccc4c(cnn4C)c2)c1C(OC(C)(C)C)C(=O)O)CCCC3 (centres unmarked) [Example 12] |  | 0.941 µM | 5130 nM |  |
| Cc1nc2sc3c(c2c(-c2ccccc2CO)c1C(OC(C)(C)C)C(=O)O)CCCC3 (centres unmarked) [Example 13] |  | 0.957 µM | 56300 nM |  |
| COc1cc(-c2c(C(OC(C)(C)C)C(=O)O)c(C)nc3sc4c(c23)CCCC4)ccn1 (centres unmarked) [Example 14] |  | 1.24 µM | 28400 nM |  |
| Cc1nc2sc3c(c2c(-c2ccc(C#N)cc2)c1C(OC(C)(C)C)C(=O)O)CCCC3 (centres unmarked) [Example 15] |  | 1.28 µM | 14800 nM |  |
| Cc1nc2sc3c(c2c(-c2ccccc2O)c1C(OC(C)(C)C)C(=O)O)CCCC3 (centres unmarked) [Example 16] |  | 1.73 µM | 57400 nM |  |
| Cc1nc2sc3c(c2c(-c2ccc4nccn4c2)c1C(OC(C)(C)C)C(=O)O)CCCC3 (centres unmarked) [Example 17] |  | 1.78 µM | > 100000 nM |  |
| Cc1nc2sc3c(c2c(-c2cnc4ccoc4c2)c1C(OC(C)(C)C)C(=O)O)CCCC3 (centres unmarked) [Example 18] |  | 1.84 µM | 30300 nM |  |
| Cc1nc2sc3c(c2c(-c2cccc(-c4nccn4C)c2)c1C(OC(C)(C)C)C(=O)O)CCCC3 (centres unmarked) [Example 19] |  | 1.9 µM | 46500 nM |  |
| Cc1nc2cc(-c3c(C(OC(C)(C)C)C(=O)O)c(C)nc4sc5c(c34)CCCC5)ccc2s1 (centres unmarked) [Example 20] |  | 2.01 µM | 11800 nM |  |
| CCOC(C(=O)O)c1c(C)nc2sc3c(c2c1-c1ccc2nsnc2c1)CCCC3 (centres unmarked) [Example 21] |  | 2.17 µM | 64800 nM |  |
| Cc1nc2ccc(-c3c(C(OC(C)(C)C)C(=O)O)c(C)nc4sc5c(c34)CCCC5)cc2s1 (centres unmarked) [Example 22] |  | 2.73 µM | 12800 nM |  |
| CCOC(C(=O)O)c1c(C)nc2sc3c(c2c1-c1ccc2cn[nH]c2c1)CCCC3 (centres unmarked) [Example 23] |  | 2.73 µM | 33100 nM |  |
